Experimental data reported in US20150366199A1, “COMPOSITIONS COMPRISING GOUGEROTIN AND AN INSECTICIDE” (priority 2013, published 2015).
Read-outs that look alike come from different tables or passages of the source.

How the values were obtained:
[1] = tested on: green peach aphid (Myzus persicae); assay: Myzus persicae - spray test (Chinese cabbage leaf-disks, Example 6); assay type: in vivo; details: for Efficacy in % after 6d: mortality after 6 d; for Efficacy in % after 1d: mortality after 1 d
From the text: (§1) Emulsifier: alkylaryl polyglycol ether

[2] = tested on: mustard beetle larvae (Phaedon cochleariae); assay: Phaedon cochleariae - spray test; details: for Efficacy in % after 6d: mortality after 6 d; for Efficacy in % after 2d: mortality after 2 d
Procedure: The expected efficacy of a given combination of two compounds is calculated as follows (see Colby, S. R., “Calculating Synergistic and antagonistic Responses of Herbicide Combinations”, Weeds 15, pp. 20-22, 1967):
Solvent: 78.0 parts by weight of acetone • • 1.5 parts by weight of dimethylformamide
To produce a suitable preparation of a NRRL B-50550, 1 part by weight of NRRL B-50550 75 WP was mixed with the stated amount of solvents and was diluted with water, containing an emulsifier concentration of 1000 ppm, to the desired concentration. Further test concentrations are prepared by dilution with emulsifier containing water.
Chinese cabbage (Brassica pekinensis) leaf-disks are sprayed with a preparation of the active ingredient of the desired concentration. Once dry, the leaf disks are infested with mustard beetle larvae (Phaedon cochleariae).
After the specified period of time, mortality in % is determined 100% means all beetle larvae have been killed and 0% means none of the beetle larvae have been killed. The mortality values determined thus are recalculated using the Colby-formula.

[3] = tested on: two spotted spidermite (Tetranychus urticae); assay: Tetranychus urticae - spray test, OP-resistant; assay type: in vivo; details: mortality after 6 d
From the text: as §1

[4] = tested on: fall armyworm larvae (Spodoptera frugiperda); assay: Spodoptera frugiperda - spray test; details: for Efficacy in % after 2d: mortality after 2 d; for Efficacy in % after 6d: mortality after 6 d
Procedure: Solvent: 78.0 parts by weight acetone • 1.5 parts by weight dimethylformamide
To produce a suitable preparation of NRRL B-50550, 1 part by weight of NRRL B-50550 75 WP is mixed with the stated amount of solvents and is diluted with water, containing an emulsifier concentration of 1000 ppm, to the desired concentration. Further test concentrations are prepared by dilution with emulsifier containing water.
Maize (Zea mais) leaf sections are sprayed with a preparation of the active ingredient of the desired concentration. Once dry, the leaf sections are infested with fall armyworm larvae (Spodoptera frugiperda).
After the specified period of time, mortality in % is determined 100% means all caterpillars have been killed and 0% means none of the caterpillars have been killed. The mortality values determined thus are recalculated using the Colby-formula.

pin worm = details: parasites on animals, such as pin worm, cited from earlier work
mites = details: cited from earlier work
[5] = tested on: gram-positive, gram-negative bacteria and tubercule bacillus; details: cited from earlier work
[6] = cited from earlier work
[7] = tested on: green peach aphid (Myzus persicae); assay: Myzus persicae - spray test (pepper leaves, Example 8); assay type: in vivo; details: 0.5 ppm

## CNC(=O)c1cc(C#N)cc(C)c1NC(=O)c1cc(Br)nn1-c1ncccc1Cl [Cyantraniliprole]
[1]; 0.64 ppm
  Efficacy in % after 6d: 0%
[1]; 3.2 ppm
  Efficacy in % after 6d: 0%
[1]; 16 ppm
  Efficacy in % after 1d: 0%
[2]; 0.64 ppm
  Efficacy in % after 6d: 0%
[3]; 80 ppm
  Efficacy in % after 6d: 0%

## CS/C(C)=N\OC(=O)N(C)SN(C)C(=O)O/N=C(\C)SC [Thiodicarb]
[4]; 40 ppm
  Efficacy in % after 2d: 0%

## CNC(=O)Oc1cc(C)c(SC)c(C)c1 [Methiocarb]
[1]; 2000 ppm
  Efficacy in % after 6d: 0%

## CC(c1ccc(C(F)(F)F)nc1)S(C)(=O)=NC#N (stereo not drawn) [Sulfoxaflor]
[1]; 0.64 ppm
  Efficacy in % after 1d: 0%

## CNCC(=O)NC(CO)C(=O)NC1C(C(N)=O)OC(n2ccc(N)nc2=O)C(O)C1O [Gougerotin, 1-(4-Amino-2-oxo-1(2H)-pyrimidinyl)-1,4-dideoxy-4-[[N—(N-methylglycyl)-D-seryl]amino]-b-D-glucopyranuronamide]
Pin worm
  parasiticidal activity: inhibitory effect on the ovulation of pin worms
Pin worm; listed as gougerotin
  parasiticidal activity: parasiticidal action
mites
  acaricidal (miticidal) effect: acaricidal (miticidal) effect
[5]
  antibacterial activity: weak
[6]
  water solubility: water soluble

## N#Cc1nn(-c2c(Cl)cc(C(F)(F)F)cc2Cl)c(N)c1[S+]([O-])C(F)(F)F (stereo not drawn) [Fipronil]
[4]; 16 ppm
  Efficacy in % after 6d: 0%

## CN/C(=N\[N+](=O)[O-])NCc1cnc(Cl)s1 [Clothianidin]
[1]; 0.32 ppm
  Efficacy in % after 6d: 0%

## Cc1c(F)c(F)c(COC(=O)[C@@H]2[C@H](/C=C(\Cl)C(F)(F)F)C2(C)C)c(F)c1F (racemic) [Tefluthrin]
[2]; 40 ppm
  Efficacy in % after 2d: 0%

## N#C/N=C1\SCCN1Cc1ccc(Cl)nc1 [Thiacloprid]
[7]; mortality after 2 d
  Efficacy in % after 2d: 40%
[7]; mortality after 3 d
  Efficacy in % after 3d: 20%
[7]; mortality after 7 d
  Efficacy in % after 7d: 10%

## CNC(=O)c1cc(C#N)cc(C)c1NC(=O)c1cc(Cn2nnc(C(F)(F)F)n2)nn1-c1ncccc1Cl [1-(3-chloropyridin-2-yl)-N-[4-cyano-2-methyl-6-(methylcarbamoyl)phenyl]-3-{[5-(trifluoromethyl)-2H-tetrazol-2-yl]methyl}-1H-pyrazole-5-carboxamide]
[2]; 0.128 ppm
  Efficacy in % after 6d: 0%
[2]; 0.64 ppm
  Efficacy in % after 2d: 50%
[4]; 0.64 ppm
  Efficacy in % after 6d: 33%

## Spinosad
[2]; 80 ppm
  Efficacy in % after 2d: 50%
[4]; 0.64 ppm
  Efficacy in % after 6d: 0%

## CNC(=O)c1cc(Cl)cc(C)c1NC(=O)c1cc(Br)nn1-c1ncccc1Cl [Chlorantraniliprole]
[1]; 3.2 ppm
  Efficacy in % after 1d: 0%
[3]; 16 ppm
  Efficacy in % after 6d: 0%

## Cc1cc(C(F)(C(F)(F)F)C(F)(F)F)ccc1NC(=O)c1cccc(I)c1C(=O)NC(C)(C)CS(C)(=O)=O [Flubendiamide]
[4]; 3.2 ppm
  Efficacy in % after 2d: 33%

## CC1(C)C(C=C(Cl)Cl)C1C(=O)OC(C#N)c1ccc(F)c(Oc2ccccc2)c1 (stereo not drawn) [β-Cyfluthrin, beta-Cyfluthrin]
[1]; 1.6 ppm
  Efficacy in % after 6d: 0%
[2]; 1.6 ppm
  Efficacy in % after 6d: 0%
[4]; 1.6 ppm
  Efficacy in % after 6d: 0%

## Cc1cc(F)c(-n2nc(C(F)(F)F)nc2N)cc1[S+]([O-])CC(F)(F)F (stereo not drawn) [1-{2-fluoro-4-methyl-5-[(2,2,2-trifluorethyl)sulfinyl]phenyl}-3-(trifluoromethyl)-1H-1,2,4-triazol-5-amine]
[3]; 3.2 ppm
  Efficacy in % after 6d: 0%

## O=[N+]([O-])NC1=NCCN1Cc1ccc(Cl)nc1 [Imidacloprid]
[3]; 2 ppm
  Efficacy in % after 6d: 0%

## Spinetoram
[4]; 0.64 ppm
  Efficacy in % after 2d: 0%
